Earlier results, collected in patent EP0604852A1, “2,4-Substituted 5-(N-substituted-sulfamoyl) benzoylguanidines, as antiarrhythmic agents, inhibitors of the proliferation of cells and inhibitors of sodium-hydrogen exchange” (HOECHST AKTIENGESELLSCHAFT, priority 1992, dated 1994).

Test system: Rattenherzen
Conditions: isolated rat hearts; Eur. Heart J. 9 (Suppl.): 167 (1988)

N=C(N)NC(=O)c1nc(Cl)c(N)nc1N [Amilorid]
künstlich ausgelöstes Kammerflimmern: völlig unterdrückt

CCN(c1nc(N)c(C(=O)NC(=N)N)nc1Cl)C(C)C [Ethylisopropylamilorid]
künstlich ausgelöstes Kammerflimmern: Noch potenter als Amilorid
